For nine compounds, viability results are on record in ChEMBL document CHEMBL4392857, “Isolation, Chiral-Phase Resolution, and Determination of the Absolute Configurations of a Complete Series of Stereoisomers of a Rearranged Acetophenone with Three Stereocenters” (2019).

Experiment [1] deals with HUVEC. Briefly: Cytoprotective effect against high glucose-induced oxidative stress in HUVEC assessed as cell viability at 1 uM incubated by MTT assay (reference value: 72.1 to 77.9%). Type of experiment: functional. The following applies: Homo sapiens, read-out: Activity.
Experiment [2] concerns HUVEC. Kind of experiment: Cytoprotective effect against high glucose-induced oxidative stress in HUVEC assessed as cell viability at 5 uM incubated by MTT assay (reference value: 72.1 to 77.9%). Type of experiment: functional. Conditions: Homo sapiens, read-out: Activity. Background: Formazan colour is commonly taken as a measure of viable cells.

Take `COC(=O)[C@@]1(O)C(=O)[C@]2(CC=C(C)C)C[C@@H](O)C(C)(C)OC2=C1C(C)=O`: the viability at 1 µM in the experiment on HUVEC [1] came to 75.6%. In the experiment with HUVEC [2], the viability at 5 µM is 62.7%.

With `COC(=O)[C@@]1(O)C(=O)[C@@]2(CC=C(C)C)C[C@H](O)C(C)(C)OC2=C1C(C)=O`, in the experiment with HUVEC [1], the viability at 1 µM came out at 79.9%. In the experiment with HUVEC [2], the viability at 5 µM was found to be 82%.

For `COC(=O)[C@@]1(O)C(=O)[C@]2(CC=C(C)C)C[C@H](O)C(C)(C)OC2=C1C(C)=O`, the viability at 1 µM in the experiment on HUVEC [1] is 103%. Further, the viability at 5 µM with HUVEC [2] stood at 104%.

As for `COC(=O)[C@]1(O)C(=O)[C@@]2(CC=C(C)C)C[C@@H](O)C(C)(C)OC2=C1C(C)=O`, the viability at 1 µM in the experiment on HUVEC [1] was determined as 79.9%. In addition, the viability at 5 µM in the experiment on HUVEC [2] was 82%.

As to `COC(=O)[C@]1(O)C(=O)[C@]2(CC=C(C)C)C[C@H](O)C(C)(C)OC2=C1C(C)=O`, in the experiment on HUVEC [1], the viability at 1 µM turned out to be 94.2%. Besides, the viability at 5 µM with HUVEC [2] was 93%.

As for `COC(=O)[C@]1(O)C(=O)[C@@]2(CC=C(C)C)C[C@H](O)C(C)(C)OC2=C1C(C)=O`, the viability at 1 µM in the experiment with HUVEC [1] came out at 71.7%. In the experiment with HUVEC [2], the viability at 5 µM turned out to be 65.1%.

`Oc1ccc(/C=C/c2cc(O)cc(O)c2)cc1` [RESVERATROL]: the viability at 1 µM in the experiment with HUVEC [1] worked out at 86.4%. For the same compound, in the experiment with HUVEC [2], the viability at 5 µM stood at 103%.

For the compound `COC(=O)[C@@]1(O)C(=O)[C@@]2(CC=C(C)C)C[C@@H](O)C(C)(C)OC2=C1C(C)=O`, the viability at 1 µM in the experiment on HUVEC [1] was 101%. Further, the viability at 5 µM in the experiment with HUVEC [2] was 101%.

With `COC(=O)[C@]1(O)C(=O)[C@]2(CC=C(C)C)C[C@@H](O)C(C)(C)OC2=C1C(C)=O`, the viability at 1 µM with HUVEC [1] came to 103%. In addition, the viability at 5 µM with HUVEC [2] was found to be 104%.
